The source of these data is patent US20220370416A1, “COMPOUNDS AND METHODS FOR TARGETED DEGRADATION OF KRAS” (Arvinas Operations, Inc., priority 2020, published 2022).

The target of assay [1] is T1, HiBit-KRAS^G12C (Homo sapiens, UniProt P01116, G12C). In words: HiBit degradation assay in MiaPaCa-2 HiBit-KRas^G12C cells. It counts as cell-based. Conditions: 24 hours. Summed up: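 MiaPaCa-2 cells with CRISPR N-terminal HiBit knock-in on one endogenous KRAS^G12C allele, treated 24 hours at 37° C with compound titrated 10 μM to 20 nM (0.1% or 0.5% DMSO). Lytic HiBit luminescence normalized to DMSO, 4-parameter fit giving DC50 and Dmax; points cytotoxic to […] cells by alamar blue excluded.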
On the technique in general: HiBiT is a short tag that completes a luciferase, so light tracks the accessible tagged protein.

Assay [2] concerns the target T1, HiBit-KRAS^G12C. Nature of the assay: HiBit degradation assay in SW1573 HiBit-KRas^G12C cells. The assay is classed as cell-based. Also on record: expressed in transfected cells; host or cells: SW1573 (clone E6), modified pcDNA3.1 vector, TK promoter. Conditions: 24 hours. Summed up:
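SW1573 cells stably expressing N-terminally HiBit-tagged KRAS G12C, under the TK promoter, were treated 24 h at 37 °C with 10 μM to 20 nM compound in 0.1% or 0.5% DMSO. Residual HiBit luminescence normalised to DMSO and fitted with a 4-parameter model for DC50 and Dmax. Points with ≥50% viability loss (alamar blue) excluded.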

[3] abbreviates: MIA PaCa-2, MiaPaCa-2 HiBit-KRas^G12C cells, 0.5% DMSO, maximum degradation, read-out: KRas^G12C-HiBiT (MiaPaCa; 0.5% DMSO) DMax.
Setting [4] is: read-out: KRas^G12C-HiBiT (MiaPaCa; 0.5% DMSO) IC50, MiaPaCa-2 HiBit-KRas^G12C cells, 0.5% DMSO.
The mark [5] stands for this setting: SW1573, SW1573 HiBit-KRas^G12C, 0.5% DMSO, read-out: KRas^G12C-HiBiT (SW1573; 0.5% DMSO) Dmax**.
The mark [6] stands for this setting: read-out: KRas^G12C-HiBiT (SW1573; 0.5% DMSO) IC50***, SW1573 HiBit-KRas^G12C, 0.5% DMSO.
Setting [7] is: read-out: KRas^G12C-HiBiT (MiaPaCa; 0.1% DMSO) IC50, MiaPaCa-2 HiBit-KRas^G12C cells, 0.1% DMSO.
Where [8] appears, read: SW1573 HiBit-KRas^G12C, 0.1% DMSO, read-out: KRas^G12C-HIBit (SW1573; 0.1% DMSO) DC50*.
[9] abbreviates: SW1573 HiBit-KRas^G12C, 0.5% DMSO.

T1 sequence (P01116 1-186 isoform P01116-2 G12C limits assumed): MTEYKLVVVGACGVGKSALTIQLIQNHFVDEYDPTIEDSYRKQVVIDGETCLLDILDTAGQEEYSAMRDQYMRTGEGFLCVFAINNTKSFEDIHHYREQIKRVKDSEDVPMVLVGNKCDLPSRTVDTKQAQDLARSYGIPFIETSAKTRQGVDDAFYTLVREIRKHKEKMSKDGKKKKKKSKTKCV

Take `C=C(F)C(=O)N1CCN(c2nc(OCCN3CCC(F)(COc4cc([C@H](C(=O)N5C[C@H](O)C[C@H]5C(=O)N[C@@H](C)c5ccc(-c6ccnn6C)cc5)C(C)C)on4)CC3)nc3c(F)c(-c4cc(O)cc5ccccc45)c(Cl)cc23)C[C@@H]1CC#N` (atropisomer, axis not shown) [Compound 117, (2S,4R)-1-[(2R)-2-[3-({1-[2-({6-chloro-4-[(3S)-3-(cyanomethyl)-4-(2-fluoroprop-2-enoyl)piperazin-1-yl]-8-fluoro-7-(3-hydroxynaphthalen-1-yl)quinazolin-2-yl}oxy)ethyl]-4-fluoropiperidin-4-yl}methoxy)-1,2-oxazol-5-yl]-3-methylbutanoyl]-4-hydroxy-N-[(1S)-1-[4-(1-methyl-1H-pyrazol-5-yl)phenyl]ethyl]pyrrolidine-2-carboxamide]: the figures for the Dmax on HiBit-KRAS^G12C [1] (setting [3]) and at HiBit-KRAS^G12C [2] (setting [5]) were more than 70% and 35 to 70%, respectively. The DC50 on HiBit-KRAS^G12C [1] (setting [4]) and on HiBit-KRAS^G12C [2] (setting [6]) was less than 100 nM throughout.

In the case of `C=CC(=O)N1CCN(c2nc(O[C@H](C)CN3CCC(CCCOC4CN(CC(=O)N[C@H](C(=O)N5C[C@H](O)C[C@H]5C(=O)N[C@@H](C)c5ccc(-c6scnc6C)cc5)C(C)(C)C)C4)CC3)nc3c(F)c(-c4cc(O)cc5ccccc45)c(Cl)cc23)CC1` [Compound 48, (2S,4R)-1-[(2S)-2-{2-[3-(3-{1-[(2R)-2-{[6-chloro-8-fluoro-7-(3-hydroxynaphthalen-1-yl)-4-[4-(prop-2-enoyl)piperazin-1-yl]quinazolin-2-yl]oxy}propyl]piperidin-4-yl}propoxy)azetidin-1-yl]acetamido}-3,3-dimethylbutanoyl]-4-hydroxy-N-[(1S)-1-[4-(4-methyl-1,3-thiazol-5-yl)phenyl]ethyl]pyrrolidine-2-carboxamide], the DC50 on HiBit-KRAS^G12C [1] (setting [7]) was more than 1000 nM; at HiBit-KRAS^G12C [2] (setting [8]) it was 100 to 1000 nM. At HiBit-KRAS^G12C [2] (SW1573, read-out: KRas^G12C-HiBit (SW1573; 0.1% DMSO) Dmax**, SW1573 HiBit-KRas^G12C, 0.1% DMSO), the Dmax is less than 35%.

As to `C=C(F)C(=O)N1CCN(c2nc(OCCN3CCC(COc4cc([C@H](C(=O)N5C[C@H](O)C[C@H]5C(=O)N[C@@H](C)c5ccc(-c6scnc6C)cc5)C(C)C)on4)CC3)nc3c(F)c(-c4cc(O)cc5ccccc45)c(Cl)cc23)C[C@@H]1CC#N` (atropisomer, axis not shown) [Compound 166, (2S,4R)-1-[(2R)-2-[3-({1-[2-({6-chloro-4-[(3S)-3-(cyanomethyl)-4-(2-fluoroprop-2-enoyl)piperazin-1-yl]-8-fluoro-7-(3-hydroxynaphthalen-1-yl)quinazolin-2-yl}oxy)ethyl]piperidin-4-yl}methoxy)-1,2-oxazol-5-yl]-3-methylbutanoyl]-4-hydroxy-N-[(1S)-1-[4-(4-methyl-1,3-thiazol-5-yl)phenyl]ethyl]pyrrolidine-2-carboxamide], the DC50 was more than 1000 nM on HiBit-KRAS^G12C [1] (setting [4]) and 100 to 1000 nM on HiBit-KRAS^G12C [2] (setting [6]). Further, the “KRas^G12C-HiBiT (SW1573; 0.5% DMSO) Dmax**” value on HiBit-KRAS^G12C [2] (setting [9]) is “B (35 < B < 70)”.

For `C=CC(=O)N1CCN(c2nc(OCCN3CCC(COCC(=O)N[C@H](C(=O)N4C[C@H](O)C[C@H]4C(=O)N[C@@H](C)c4ccc(-c5scnc5C)cc4)C(C)(C)C)CC3)nc3c(F)c(-c4nc(NC)cc(C)c4C(F)(F)F)c(Cl)cc23)C[C@@H]1CC#N` [Compound 98, (2S,4R)-1-[(2S)-2-[2-({1-[2-({6-chloro-4-[(3S)-3-(cyanomethyl)-4-(prop-2-enoyl)piperazin-1-yl]-8-fluoro-7-[4-methyl-6-(methylamino)-3-(trifluoromethyl)pyridin-2-yl]quinazolin-2-yl}oxy)ethyl]piperidin-4-yl}methoxy)acetamido]-3,3-dimethylbutanoyl]-4-hydroxy-N-[(1S)-1-[4-(4-methyl-1,3-thiazol-5-yl)phenyl]ethyl]pyrrolidine-2-carboxamide], the Dmax on HiBit-KRAS^G12C [1] (setting [3]) and at HiBit-KRAS^G12C [2] (setting [5]) was more than 70% each time. Moreover, the DC50 on HiBit-KRAS^G12C [1] (setting [4]) and at HiBit-KRAS^G12C [2] (setting [6]) was 100 to 1000 nM throughout.

For the compound `C=CC(=O)N1CCN(c2nc(OCCN3CCC(COc4cc([C@H](C(=O)N5C[C@H](O)C[C@H]5C(=O)N[C@@H](C)c5ccc(-c6scnc6C)cc5)C(C)C)on4)CC3)nc3c(F)c(-c4cc(O)cc5ccccc45)c(Cl)cc23)C[C@@H]1CC#N` (atropisomer, axis not shown) [Compound 173, (2S,4R)-1-[(2R)-2-[3-({1-[2-({6-chloro-4-[(3S)-3-(cyanomethyl)-4-(prop-2-enoyl)piperazin-1-yl]-8-fluoro-7-(3-hydroxynaphthalen-1-yl)quinazolin-2-yl}oxy)ethyl]piperidin-4-yl}methoxy)-1,2-oxazol-5-yl]-3-methylbutanoyl]-4-hydroxy-N-[(1S)-1-[4-(4-methyl-1,3-thiazol-5-yl)phenyl]ethyl]pyrrolidine-2-carboxamide], the “KRas^G12C-HiBiT (MiaPaCa; 0.5% DMSO) DMax” value at HiBit-KRAS^G12C [1] (MiaPaCa-2 HiBit-KRas^G12C cells, 0.5% DMSO, maximum degradation) is “A (A ≥ 70)”. For the same compound, the DC50 at HiBit-KRAS^G12C [1] (setting [4]) and on HiBit-KRAS^G12C [2] (setting [6]) was less than 100 nM each time. At HiBit-KRAS^G12C [2] (setting [9]), the “KRas^G12C-HiBiT (SW1573; 0.5% DMSO) Dmax**” value is listed as “A (A ≥ 70)”.

As for `C=CC(=O)N1CCN(c2nc(OCCN3CCC(OCCOc4cc([C@@H](C(=O)N5C[C@@H](O)C[C@H]5C(=O)N[C@@H](C)c5ccc(-c6scnc6C)cc5)C(C)C)on4)CC3)nc3c(F)c(-c4cc(O)cc5ccccc45)c(Cl)cc23)C[C@@H]1CC#N` [Compound 5, (2S,4S)-1-[(2S)-2-{3-[2-({1-[2-({6-chloro-4-[(3S)-3-(cyanomethyl)-4-(prop-2-enoyl)piperazin-1-yl]-8-fluoro-7-(3-hydroxynaphthalen-1-yl)quinazolin-2-yl}oxy)ethyl]piperidin-4-yl}oxy)ethoxy]-1,2-oxazol-5-yl}-3-methylbutanoyl]-4-hydroxy-N-[(1S)-1-[4-(4-methyl-1,3-thiazol-5-yl)phenyl]ethyl]pyrrolidine-2-carboxamide], the Dmax at HiBit-KRAS^G12C [1] (MIA PaCa-2, read-out: KRas^G12C-HiBiT (MiaPaCa; 0.1% DMSO) DMax, MiaPaCa-2 HiBit-KRas^G12C cells, 0.1% DMSO, maximum degradation) was less than 35%. Also, the DC50 was 100 to 1000 nM on HiBit-KRAS^G12C [1] (setting [7]) and more than 1000 nM at HiBit-KRAS^G12C [2] (setting [8]).

On to `C=CC(=O)N1CCN(c2nc(OCCN3CCC(COCC(=O)N[C@H](C(=O)N4C[C@H](O)C[C@H]4C(=O)N[C@@H](C)c4ccc(-c5scnc5C)cc4)C(C)(C)C)CC3)nc3c(F)c(-c4nc(N)cc(C)c4C(F)(F)F)c(Cl)cc23)C[C@@H]1CC#N` [Compound 115, (2S,4R)-1-[(2S)-2-[2-({1-[2-({7-[6-amino-4-methyl-3-(trifluoromethyl)pyridin-2-yl]-6-chloro-4-[(3S)-3-(cyanomethyl)-4-(prop-2-enoyl)piperazin-1-yl]-8-fluoroquinazolin-2-yl}oxy)ethyl]piperidin-4-yl}methoxy)acetamido]-3,3-dimethylbutanoyl]-4-hydroxy-N-[(1S)-1-[4-(4-methyl-1,3-thiazol-5-yl)phenyl]ethyl]pyrrolidine-2-carboxamide], for which the Dmax at HiBit-KRAS^G12C [1] (setting [3]) and on HiBit-KRAS^G12C [2] (setting [5]) was more than 70% throughout. The DC50 on HiBit-KRAS^G12C [1] (setting [4]) and on HiBit-KRAS^G12C [2] (setting [6]) was 100 to 1000 nM throughout.

On to `C=CC(=O)N1CCN(c2nc(O[C@H](C)CN3CCC(COc4cc([C@H](C(=O)N5C[C@H](O)C[C@H]5C(=O)N[C@@H](C)c5ccc(-c6scnc6C)cc5)C(C)C)on4)CC3)nc3c(F)c(-c4cc(O)cc5ccccc45)c(Cl)cc23)C[C@@H]1CC#N` [Compound 153, (2S,4R)-1-[(2R)-2-[3-({1-[(2R)-2-({6-chloro-4-[(3S)-3-(cyanomethyl)-4-(prop-2-enoyl)piperazin-1-yl]-8-fluoro-7-(3-hydroxynaphthalen-1-yl)quinazolin-2-yl}oxy)propyl]piperidin-4-yl}methoxy)-1,2-oxazol-5-yl]-3-methylbutanoyl]-4-hydroxy-N-[(1S)-1-[4-(4-methyl-1,3-thiazol-5-yl)phenyl]ethyl]pyrrolidine-2-carboxamide], for which the Dmax at HiBit-KRAS^G12C [1] (setting [3]) and on HiBit-KRAS^G12C [2] (setting [5]) was more than 70% throughout. For the same compound, the DC50 at HiBit-KRAS^G12C [1] (setting [4]) and at HiBit-KRAS^G12C [2] (setting [6]) was 100 to 1000 nM in each case.

As for `C=C(F)C(=O)N1CCN(c2nc(OCCN3CCC(COc4cc([C@@H](C(=O)N5C[C@H](O)C[C@H]5C(=O)N[C@@H](C)c5ccc(-c6ccnn6C)cc5)C(C)C)on4)CC3)nc3c(F)c(-c4cc(O)cc5ccccc45)c(Cl)cc23)C[C@@H]1CC#N` [Compound 158, (2S,4R)-1-[(2S)-2-[3-({1-[2-({6-chloro-4-[(3S)-3-(cyanomethyl)-4-(2-fluoroprop-2-enoyl)piperazin-1-yl]-8-fluoro-7-(3-hydroxynaphthalen-1-yl)quinazolin-2-yl}oxy)ethyl]piperidin-4-yl}methoxy)-1,2-oxazol-5-yl]-3-methylbutanoyl]-4-hydroxy-N-[(1S)-1-[4-(1-methyl-1H-pyrazol-5-yl)phenyl]ethyl]pyrrolidine-2-carboxamide], the DC50 at HiBit-KRAS^G12C [1] (setting [4]) and on HiBit-KRAS^G12C [2] (setting [6]) was more than 1000 nM each time.
